Measurements published in publication PMC11187260, “Unraveling the interconversion pharmacokinetics and oral bioavailability of the major ginger constituents: [6]-gingerol, [6]-shogaol, and zingerone after single-dose administration in rats” (Frontiers in Pharmacology, 2024).
Read-outs that look alike come from different tables or passages of the source.

Key:
Type in all cases: in vivo, Female Sprague Dawley rats
[1] = Percent recovery in urine and feces after intravenous or oral administration; details: for dose excreted: female, Sprague Dawley, rat, % of administered dose
Protocol: (§1) This study is composed of two sections; the first section involves an investigation of the interconversion pharmacokinetics of the pure compounds, and the second focuses on tissue distribution. All rats were transferred to metabolic cages and fasted overnight for at least 10 h. The animals were then randomly divided into four groups (6 rats/group) to receive a single intravenous (i.v.) administration of either 6G, 6S, zingerone, or vehicle via the lateral tail vein at a dosage of 3 mg/kg. After a 7-week washout period, the rats received 30 mg/kg of the same test compounds through a single oral (p.o.) administration. Following each administration, blood samples (300 µL) were collected in heparinized tubes from the lateral tail vein (while rats were under anesthesia with isoflurane) at specified time points: 0.083, 0.25, 0.5, 1, 1.5, 2, 3, 4, 6, 8, and 24 h after administration. An additional 1 mL of blood sample was collected from each rat at pre-dose (0 h) and post-dose (24 h) for clinical laboratory testing and safety evaluation. All heparinized blood samples were initially centrifuged at 5,000 × g, 4 °C, for 10 min. Subsequently, the plasma was carefully transferred to a cryotube as an aliquot sample and then stored at −40 °C until analysis. Urine and feces were collected during the intervals of 0–24 h and 24–48 h post-dosing, and their weights and volumes were documented. All collected urine and feces samples were stored at −40 °C until analysis.
Urine samples were centrifuged, and 50 µL of urine was extracted with 200 µL of 100% methanol. The mixture was vortexed for 10 min and subsequently centrifuged at 14,000 × g at 4 °C for 10 min. Feces and organs were weighed and homogenized with methanol (50:50% w/v). The supernatants of the extracted urine, feces, and organs were also filtered through a […] PVDF membrane (Chrome Tech, MN, USA) before analysis.
(§2) Investigation of glucuronide conjugations followed a previously published method with some modification ([Wang et al., 2017]; [Songvut et al., 2023]). A 50 μL aliquot of plasma, urine, or feces sample was incubated at 37 °C for a minimum of 30 min with 50 μL of β-glucuronidase (3,000 U/mL) in a sodium phosphate buffer (pH 6.8). For sample extraction, 150 μL of methanol containing 50 μg/L of IS was pipetted into the pre-incubated samples. Subsequently, the mixtures were vortexed for 10 min and then centrifuged at 14,000 × g at 4 °C for 10 min. The supernatants were filtered through a […] PVDF membrane (Chrome Tech, MN, United States) and then analyzed using the validated LC-MS/MS method.
(§3) Plasma concentration-time profiles were plotted using GraphPad Prism 9.3.0 (GraphPad Software, USA). The absolute oral bioavailability was calculated as follows: F = (AUC p.o./dose p.o.)/(AUC i.v./dose i.v.). The percentage recovery of each administered compound was calculated as the total amount of the drug found in urine or feces divided by the administered dose. The tissue-to-plasma concentration ratios (K p) were calculated by dividing the concentration in the tissue by the corresponding plasma concentration at the respective sampling time point.

[2] = Safety evaluation: physical appearance and blood chemistry after single i.v. or p.o. dose; details: for ALP / ALT / AST / BUN / Creatinine: post-dose (24 h), mean ± SD n=6; for Physical appearance: post-dose
Protocol: as §1
Plasma samples were collected at baseline (T0) and T24 h for the determination of blood chemistry, including levels of blood urea nitrogen (BUN), creatinine, aspartate transaminase (AST), alanine transaminase (ALT), and alkaline phosphatase (ALP). The analyses were conducted by the Exclusive Veterinary Professional Laboratory Center (Bangkok, Thailand). The creatinine level was determined using an enzymatic oxidase assay, while AST and ALT levels were determined using the procedure of the International Federation of Clinical Chemistry (IFCC) without pyridoxal phosphate activation.

[3] = Pharmacokinetics and oral bioavailability after single oral administration (30 mg/kg), plasma LC-MS/MS
Protocol: as §1
Plasma samples were processed through protein precipitation. In brief, 50 µL of plasma was mixed with 200 µL of methanol containing 50 ng/mL of IS (dihydrocapsaicin). The mixtures were vortexed and centrifuged at 14,000 × g at 4 °C for 10 min. The supernatant was filtered through a […] PVDF membrane (Chrome Tech, MN, USA) before analysis.
as §2
Quantitative analysis was conducted using liquid chromatography-tandem mass spectrometry (LC-MS/MS) with a Nexera X2 LCMS-8060NX instrument (Shimadzu, Japan). The instrument included a CBM-40lite system controller, CTO-40C column oven, SIL-40C XR autosampler, LC-40D XR solvent pump unit, FCV-DGU-403 degasser, and 20AH2 switching valve. The LC-MS/MS system was operated with a binary pump and equipped with a triple quadrupole mass spectrometer.
Pharmacokinetic parameters were assessed using PK Solutions software (version 2.0) with non-compartmental analysis. The AUC was calculated using the Linear-Log Trapezoidal Method. The maximum plasma concentration (Cmax) and time to reach maximum plasma concentration (Tmax) were taken directly from the graph.
as §3

[4] = Interconversion clearance between 6G and 6S after intravenous administration; details: single i.v. 3 mg/kg
Protocol: The interconversion between 6G and 6S was determined using previously published methods ([Ebling and Jusko, 1986]; [Prueksaritanont et al., 2005]). The clearance of 6G biotransformed into 6S was calculated as CL12, while the reverse clearance (6S → 6G) was calculated as CL21. The irreversible elimination clearances of 6G and 6S were calculated as CL10 and CL20, respectively. The following equations were used in accordance with the notation provided in Supplementary Table S3. CL12=Dose^shogaol […] CL21=Dose^gingerol […] CL10=Dose^gingerol x AUCshogaolshogaol- Dose^shogaol […] CL20=Dose^shogaol […]- Dose^gingerol […]

parent compound recovered in urine ([1]; during 24–48 h): less than 1% | dose excreted ([1]; feces, iv, 3 mg/kg, intravenous administration 3 mg/kg of parent compound, read-out: % Recovery excretion, feces T 0–24 h): 0.005 ± 0.002% | dose excreted ([1]; feces, iv, 3 mg/kg, intravenous administration 3 mg/kg of parent compound, read-out: % Recovery excretion, feces T 24–48 h): 0.005 ± 0.001% | dose excreted ([1]; feces, po, 30 mg/kg, oral administration 30 mg/kg of parent compound, read-out: % Recovery excretion, feces T 0–24 h): 0.001 ± 0.001% | dose excreted ([1]; feces, po, 30 mg/kg, oral administration 30 mg/kg of parent compound, read-out: % Recovery excretion, feces T 24–48 h): < 0.001% | dose excreted ([1]; urine, iv, 3 mg/kg, intravenous administration 3 mg/kg of parent compound, read-out: % Recovery excretion, urine T 0–24 h): 0.623 ± 0.706% | dose excreted ([1]; urine, iv, 3 mg/kg, intravenous administration 3 mg/kg of parent compound, read-out: % Recovery excretion, urine T 24–48 h): 0.008 ± 0.005% | dose excreted ([1]; urine, po, 30 mg/kg, oral administration 30 mg/kg of parent compound, read-out: % Recovery excretion, urine T 0–24 h): 0.1 ± 0.102% | dose excreted ([1]; urine, po, 30 mg/kg, oral administration 30 mg/kg of parent compound, read-out: % Recovery excretion, urine T 24–48 h): 0.002 ± 0.001% | unchanged form in fecal excretion ([1]; within 48 h after intravenous or oral administration): < 0.1% | plasma level of converted product ([3]; after oral administration of 6S 30 mg/kg): undetectable | bioavailability ([3]; female, Sprague-Dawley, rat, plasma, po, 30 mg/kg, p.o. 30 mg/kg vs i.v. 3 mg/kg of the pure compound, mean ± SD n=6, read-out: %Oral bioavailability): 0.17 ± 0.11% | bioavailability ([3]; female, Sprague-Dawley, rat, plasma, po, 30 mg/kg, p.o. 30 mg/kg vs i.v. 3 mg/kg of the pure compound, range among rats, read-out: %Oral bioavailability (range)): 0.1 to 0.4% | bioavailability ([3]; female, Sprague-Dawley, rat, plasma, po, 30 mg/kg, p.o. 30 mg/kg vs i.v. 3 mg/kg, pure compounds, read-out: absolute oral bioavailability (upper bound)): < 2% | AUC(0-inf) ([3]; female, Sprague-Dawley, rat, plasma, po, 30 mg/kg, plasma analyte after [6]-gingerol p.o. 30 mg/kg, mean ± SD n=6): 92.1 ± 26.9 ng·h/mL | AUC(0-t) ([3]; female, Sprague-Dawley, rat, plasma, po, 30 mg/kg, plasma analyte after [6]-gingerol p.o. 30 mg/kg, mean ± SD n=6, read-out: AUC(0-t)): 92.1 ± 26.9 ng·h/mL | Tmax ([3]; female, Sprague-Dawley, rat, plasma, po, 30 mg/kg, plasma analyte after [6]-gingerol p.o. 30 mg/kg, median [IQR]): 4.8 min | presence of parent compound in plasma ([3]; following oral administration): up to 4 h | time to detectable plasma levels ([3]; oral administration of pure compound): ≤ 5 min | time to reach peak plasma concentration (Cmax) ([3]; parent compound after oral administration 30 mg/kg): 5 to 45 min | clearance ([4]; female, Sprague-Dawley, rat, plasma, iv, read-out: CL10 (irreversible elimination clearance of 6G) (converted)): 8.67 mL/min/kg | CL12 relative to reverse clearance CL21 [4]: approximately sevenfold greater
SMILES: CCCCC[C@H](O)CC(=O)CCc1ccc(O)c(OC)c1 [[6]-gingerol]
ALP ([2]; i.v. 3 mg/kg): 44.67 ± 7.09 U/L | ALT ([2]; i.v. 3 mg/kg): 20.33 ± 2.42 U/L | AST ([2]; i.v. 3 mg/kg): 65.83 ± 19.66 U/L | BUN ([2]; i.v. 3 mg/kg): 12.83 ± 2.64 mg/dL | Creatinine ([2]; i.v. 3 mg/kg): 0.73 ± 0.04 mg/dL | ALP ([2]; p.o. 30 mg/kg): 32.67 ± 7.45 U/L | ALT ([2]; p.o. 30 mg/kg): 21.23 ± 2.44 U/L | AST ([2]; p.o. 30 mg/kg): 60.50 ± 7.12 U/L | BUN ([2]; p.o. 30 mg/kg): 12.17 ± 2.86 mg/dL | Creatinine ([2]; p.o. 30 mg/kg): 0.66 ± 0.03 mg/dL | Physical appearance ([2]; i.v. 3 mg/kg): Normal | Physical appearance ([2]; p.o. 30 mg/kg): Normal
